Experimental data from patent publication US8093025B2, “Bacterial vector” (Helmholtz-Zentrum fuer Infektionsforschung GmbH, priority 2004, dated 2012).

What was measured:
[1] = system: SL7207 bearing the plasmid of FIG. 8; assay: Induced lysis (gene E) of bacterial vector within infected J774A1 cells, CFU; type: cell-based, Salmonella enterica serovar Typhimurium; settings: SL7207 with gene E plasmid pHL241, induction period 3 hours
Method: The plasmid pHL241 shown in FIG. 8 was derived from plasmid pHL238 shown in FIG. 1 by exchanging gene gfp against gene E.
For infection, J774A1 cells were cultured and infected with SL7207 bearing the plasmid of FIG. 8 according to the procedure of Example 2. Induction was by addition of L-arabinose to the final concentrations in cell culture medium as given in FIG. 9, for an induction period of 3 hours. Following induction, cells were harvested and lysed by addition of Triton X-100 to a concentration of 1 g/L. For re-isolation, intracellular bacterial vectors were plated on LB-agar containing ampicillin for quantification of viable bacteria as colony forming units (CFU).

CT26 tumor [2] = assay: Vector with gene E under Prha and lux under PBAD plus TNFalpha in CT26 tumor mice; type: in vivo, Balb/c mice
From the text: As an example for multifunctional bacterial vectors for use in the pharmaceutical combination according to the invention, vaccine strain SL7207 was genetically manipulated by Tn7 mediated chromosomal integration of the mini-transposon of a plasmid pHL260b, modified from pHL260a by replacing the PBAD promoter by the L-rhamnose inducible promoter (Prha), derived from plasmid pJOE2702 (Stumpp et al., Biospektrum 6, 33-36(2000)). This strain chromosomally contains at least one copy of gene E of bacteriophage phiX174 under the control of the rhamnose inducible promoter (Prha). The resultant strain was then transformed with plasmid pTNFa-lux, containing the bioluminescence operon of Photorhabdus luminescence under control of the PBAD promoter in combination with the mouse TNFalpha gene under the control of the constitutive promoter from beta-lactamase (Pbla).
As described in Example 8, Balb/c mice bearing a CT26 tumor were administered 5×10^6 bacterial vector, suspended in PBS by intravenous administration. […] Upon administration of 120 mg L-arabinose dissolved in PBS intraperitoneally, to the same mice 1 day later, as well as on consecutive days, colonization of tumor tissue by bacterial vectors was monitored by spectrometry, more specifically luminometric analysis of anesthesized mice using a CCD camera.

PBAD [3] = assay: GFP expression from plasmid pHL238 in bacterial culture after induction, flow cytometry; type: cell-based, Salmonella enterica serovar Typhimurium; settings: induction by L-arabinose, vector SL7207[pHL238]
From the text: As an example for a structural gene, plasmid pHL238 (schematically depicted in FIG. 1) comprising the structural gene for green fluorescent protein (GFP) under the control of PBAD was cloned, further comprising the structural gene for the regulator of PBAD, araC under the control of its own promoter Pc, along with the Ampicillin resistance gene as a selection marker, and a high copy number origin of replication from pUC. Regulatory elements originate from plasmid pBAD18 (Guzman et al., J. Bacteriol. 1995 July; 177(14):4121-30)
This bacterial vector is based on Salmonella enterica serovar Typhimurium, strain SL7207, which is a known attenuated invasive salmonella strain in use for experimental vaccination. The salmonella strain was transformed with plasmid pHL238 by electroporation, transformed colonies were selected on LB-medium agar plates containing streptomycin at 30 μg/mL and ampicillin at 100 μg/mL. The resultant transformed strain was bacterial vector SL7207[pHL238]. […] Results are shown in FIG. 2, the thick line for addition of L-arabinose, the thin line without L-arabinose.

PBAD [4] = assay: GFP expression from bacterial vector within infected J774A1 cells, two colour flow cytometry; type: cell-based, murine; settings: SL7207[pHL238] in J774A1 cells, L-arabinose 4 mM, 40 mM, 400 mM in medium, 3 hours
Method: The murine macrophage cell line J774A1 was infected with bacterial vector SL7207[pHL238] of Example 1. Before infection, cells were seeded to 2×10^6 cells per well in a 6-well plate in antibiotic-free medium (IMDM with 10% inactivated fetal calf serum, 2 mM glutamine) and grown for one day in a 5% CO2 atmosphere at 37° C. For infection, SL7207[pHL238] were grown from a glycerol stock overnight at 37° C. on a LB plate supplemented with antibiotics, followed by cultivation in liquid LB medium supplemented with antibiotics for approximately 2 hours at 37° C., shaking at 60 rpm. Bacteria were harvested by centrifugation, washed in PBS, resuspended in cell culture medium and added at a ˜MOI of 10. 30 min after start of infection cells were washed twice with PBS before medium containing gentamycin (50 μg/mL) was added to kill extracellular bacteria. […] GFP expressing bacteria in the lysates were monitored by flow cytometry. In order to differentiate fluorescence of GFP expressing bacteria from autofluorescent cell fragments the so-called two colour flow cytometry method was used (Bumann, Infect. Immun. (2001) 69, 4618-4626.). The analytical results are depicted in FIG. 3, with unspecific background fluorescence substracted. […]

PBAD [5] = assay: In vitro regulation of copy number of plasmid pAEN17 (GFP read-out) in bacterial culture; type: cell-based, Salmonella enterica serovar Typhimurium; settings: addition of L-arabinose, trfA under PBAD acting on oriV
From the text: In the absence of L-arabinose, just one copy of this plasmid per bacterial cell is maintained, regulated by the origin of replication derived from the F plasmid of Escherichia coli. In addition, this plasmid contains the inducible origin of replication of plasmid RK2, namely oriV. The replicase gene trfA, acting on this origin, is placed under the control of PBAD, as an example for a saccharide inducible promoter.
In order to allow for a convenient analysis of plasmid replication, GFP was placed under control of the weak constitutive Pbla promoter derived from the bla gene, also contained on said vector. The recombinant strain SL7207[pAEN17] was grown into logarithmic phase and either no or 0.1% L-Arabinose was added into bacterial cultures.

CT26 tumor [6] = assay: In vivo colonization and luciferase transgene induction in CT26 tumor-bearing mice; parameters: species or system Balb/c mice
From the text: As a representative for a transgene, the luciferase gene from the firefly Photinus pyralis was used as the reporter gene. As the saccharide inducible promoter element, PBAD from the L-arabinose operon of E. coli was functionally linked to the luciferase gene, the promoter element further being in conjunction with the structural gene for its regulator protein araC under the control of its natural own promoter (PC). The bacterial vector was generated by transforming Salmonella enterica serovar Typhimurium, vaccine strain SL7207, with the plasmid containing the transgene under the control of the saccharide inducible promoter by electroporation.
As an example for an animal having a tumor, Balb/c mice were subcutaneously inoculated abdominally with 10^6 cells of the colon adenocarcinoma cell line CT26. After this tumor generation treatment, mice bearing tumors of approximately 400-600 mm^3 were intravenously injected with 5×10^6 bacteria of the above bacterial vector (SL7207[pHL259]), representing the first component of the pharmaceutical combination, suspended in phosphate buffered saline (PBS). Three days post infection, L-arabinose as the appropriate inductor saccharide, representing the second component of the pharmaceutical combination, was administered intraperitoneally, dissolved in PBS. Subsequently, mice were sacrificed and the tumors, spleens and livers dissected, then transferred into 3 mL of sterile, ice-cold PBS containing 0.1% (vol/vol) Triton X-100.
Tissues were disrupted in a Polytron PG3000 homogenizer (Kinematica, Littau, Switzerland). Homogenates were diluted in PBS and streaked on medium plates with selective antibiotic (ampicillin). Colonies were counted after incubation of plates. As a result, the number of bacteria in respective tissues could be calculated by counting the resulting colony forming units (cfu) for each organ.
The induction of the transgene was determined by measurement of the reporter gene (luciferase) activity from tissue homogenates after dilution (1:1) in 2× luciferase assay lysis buffer (50 mM tris-HCl, 4 mM DTT, 20% (vol/vol) glycerol, 2% (vol/vol) Triton X-100, 2 mg/mL lysozyme, pH 8.3), incubation at 25° C. for 10 minutes, centrifugation at 3,000×g for 3 minutes, 10 μL supernatant were added to 100 mL LARII reagent of the luciferase assay system according to the manufacturer's instructions (Promega, Mannheim, Germany). Luminescence intensity was measured spectrometrically in a luminometer (Lumat LB9507, Berthold, Pforzheim, Germany). Dilution was taken into account when calculating RLU per organ.

PBAD [7] = assay: Induction of plasmid replication in bacterial vector within infected J774A1 cells (GFP read-out); type: cell-based, murine; settings: SL7207[pAEN17] in J774A1 cells, L-arabinose 4 mM, 40 mM, 400 mM, 3 hours
Method: J774A1 cells, a murine macrophage cell line, were infected with strain SL7207[pAEN17], as described in Example 2. 4 hours after infection, different amounts of L-arabinose were added into individual wells of infected J774A1 cells up to a concentration in the medium of 4 mM, 40 mM and 400 mM, respectively. 3 hours after addition of L-arabinose cells were treated with 0.25% Triton X-100. Bacteria in the lysates were monitored for GFP expression by flow cytometry as described in Example 2. The analytical results are depicted in FIG. 7, with unspecific background fluorescence substracted.

PBAD [8] = assay: In vivo GFP expression from bacterial vector re-isolated from spleen of infected mice; parameters: species or system Balb/c mice; settings: SL7207[pHL238] i.v., L-arabinose i.v. after 2 days, spleen 4 hours later
Method: Balb/c mice were infected intravenously with a dose of ca. 5×10^6 bacteria in PBS of bacterial vector SL7207[pHL238]. After 2 days, different amounts of L-arabinose dissolved in PBS were administered intravenously into mice. 4 hours after L-arabinose administration mice were sacrificed, spleens were removed, homogenized in PBS containing 0.1% Triton X-100 and lysates were analyzed by two colour flow cytometry.

Structure (SMILES)	number of viable bacterial vectors inside infected J774A1 cells (CFU) [1]	bioluminescence from lux operon under PBAD (CT26 tumor [2]; 120 mg L-arabinose i.p., repeated administration after L-rhamnose)	GFP fluorescence relative to background without induction (PBAD [3])	fluorescence intensity of GFP (PBAD [4])	copy number of the plasmid pAEN17 (PBAD [5])	induction of transgene expression (luciferase, RLU) (CT26 tumor [6]; L-arabinose i.p. three days post infection, tumor, spleen, liver)	transgene activity in spleen and liver (CT26 tumor [6]; spleen and liver)	time of main transgene activity past administration of the inductor saccharide (CT26 tumor [6]; tumor tissue)	absolute transgene activity, comparison of tissues (CT26 tumor [6]; tumor, spleen, liver)	fluorescence intensity of GFP (PBAD [7])	expression of GFP by bacteria recovered from infected animals (PBAD [8])	lysis of bacterial vector and release of TNFalpha (CT26 tumor [2]; 120 mg L-rhamnose i.p. 3 days after vector i.v.)
O=C[C@H](O)[C@@H](O)[C@@H](O)CO [L-arabinose]	drastically decreases the number of viable bacterial vectors	bioluminescence	more than two orders above the background fluorescence	increases with increasing concentrations of L-arabinose	increased copy number	induces transgene expression for all tissues tested	very low to about background levels	about 6 hours	greatest in tumor tissue	increases with increasing concentrations of L-arabinose	induced by L-Arabinose in a dose-dependent manner	–
C[C@H](O)[C@H](O)[C@@H](O)[C@@H](O)C=O [L-rhamnose]	–	–	–	–	–	–	–	–	–	–	–	lysis of bacterial vector and release of TNFalpha was observed
